B1: daclizumab (antibody, chains of the INN, looked up, V domains shown)
VH: QVQLVQSGAEVKKPGSSVKVSCKASGYTFTSYRMHWVRQAPGQGLEWIGYINPSTGYTEYNQKFKDKATITADESTNTAYMELSSLRSEDTAVYYCARGGGVFDYWGQGTLVTVSS
VL: DIQMTQSPSTLSASVGDRVTITCSASSSISYMHWYQQKPGKAPKLLIYTTSNLASGVPARFSGSGSGTEFTLTISSLQPDDFATYYCHQRSTYPLTFGQGTKVEVK

Experiments:
[1] = system: Foxp3+, CD25+, CD4+ T-regulatory cells; assay: T-regulatory recovery after depletion and treatment with TLR-ligands; settings: for effect on thymopoeisis (suggested by day 10 spike in percent thymic T-reg): after T-regulatory depletion; for induction of T-regulatory recovery in the thymus and spleen: conclusion
[2] = system: T regulatory phenotype cells; set-up: species or system non-human primate; settings: in vivo

Molecule	effect on thymopoeisis (suggested by day 10 spike in percent thymic T-reg) [1]	induction of T-regulatory recovery in the thymus and spleen [1]	T-regulatory recovery in the thymus ([1]; day 10, summary)	percent Foxp3+, CD25+, CD4+ splenocytes versus untreated mice ([1]; day 17, T-reg depleted mice)	T-regulatory recovery in the spleen ([1]; day 17, summary)	percent Foxp3+, CD25+, CD4+ splenocytes versus untreated mice ([1]; day 10, T-reg depleted mice)	T-regulatory recovery in the spleen ([1]; day 10, summary)	T-reg recovery in the thymus ([1]; day 17, summary)	time of maximum depletion of % and number of T regulatory phenotype cells [2] [weeks]	time until which depletion lasted [2] [weeks]
C=CCn1c(=O)n([C@@H]2O[C@H](CO)[C@@H](O)[C@H]2O)c2nc(N)[nH]c(=O)c21 [TLR-7 ligand, loxoribine]	have an effect on thymopoeisis	able to induce T-regulatory recovery	accelerated	significantly increased levels	accelerated					
flagellin [TLR-5 ligand]	no effect									
Poly (I:C) [TLR-3 ligand]	have an effect on thymopoeisis	able to induce T-regulatory recovery		significantly increased levels	accelerated	significantly higher levels	accelerated	greater		
B1									2	4
